Measurements reported in ChEMBL document CHEMBL5579866, “TRPA1 Inhibition Effects by 3-Phenylcoumarin Derivatives” (2024).
Active and inactive are the calls of the source. The calls are words filed in the database; no cut-off is given here.

What was measured:
[1] = molecular target: Transient receptor potential cation channel subfamily A member 1 (Homo sapiens) (UniProt O75762); experiment: Agonist activity at human TRPA1; settings: filed as agonist
T47D [2] = experiment: Downregulation of TRPA1 protein expression in human T47D cells after 48 hrs; assay type: functional, cell-based
[3] = molecular target: Transient receptor potential cation channel subfamily A member 1 (Homo sapiens) (UniProt O75762); experiment: Antagonist activity at AITC induced human TRPA1 expressed in HEK293 cells assessed as intracellular calcium level at 10 to 100 uM preincubated for 30 mins followed by AITC stimulation and measured for 30 sec by Fluo-3AM staining based assay; assay type: cell-based; settings: filed as antagonist, dose 10-100 µM, time 1830.0 sec
T47D [4] = experiment: Inhibition of human T47D spheroid 3D culture growth size at 1 uM incubated for 120 hrs by CellIQ live-cell analysis; assay type: functional
T47D [5] = experiment: Inhibition of human T47D spheroid 3D culture growth size at 10 uM incubated for 120 hrs by CellIQ live-cell analysis; assay type: functional
T47D [6] = experiment: Inhibition of human T47D spheroid 3D culture growth size at 10 to 100 uM incubated for 12 hrs by CellIQ live-cell analysis; assay type: functional, cell-based; settings: dose 10-100 µM
T47D [7] = experiment: Inhibition of human T47D spheroid 3D culture growth size at 10 uM incubated for 5 days by CellIQ live-cell analysis; assay type: functional; settings: 120 h, time 5 day
T47D [8] = experiment: Inhibition of human T47D spheroid 3D culture growth size at 100 uM incubated for 5 days by CellIQ live-cell analysis; assay type: functional; settings: 120 h, time 5 day

Transient receptor potential cation channel subfamily A member 1 (Homo sapiens), sequence (O75762 whole entry): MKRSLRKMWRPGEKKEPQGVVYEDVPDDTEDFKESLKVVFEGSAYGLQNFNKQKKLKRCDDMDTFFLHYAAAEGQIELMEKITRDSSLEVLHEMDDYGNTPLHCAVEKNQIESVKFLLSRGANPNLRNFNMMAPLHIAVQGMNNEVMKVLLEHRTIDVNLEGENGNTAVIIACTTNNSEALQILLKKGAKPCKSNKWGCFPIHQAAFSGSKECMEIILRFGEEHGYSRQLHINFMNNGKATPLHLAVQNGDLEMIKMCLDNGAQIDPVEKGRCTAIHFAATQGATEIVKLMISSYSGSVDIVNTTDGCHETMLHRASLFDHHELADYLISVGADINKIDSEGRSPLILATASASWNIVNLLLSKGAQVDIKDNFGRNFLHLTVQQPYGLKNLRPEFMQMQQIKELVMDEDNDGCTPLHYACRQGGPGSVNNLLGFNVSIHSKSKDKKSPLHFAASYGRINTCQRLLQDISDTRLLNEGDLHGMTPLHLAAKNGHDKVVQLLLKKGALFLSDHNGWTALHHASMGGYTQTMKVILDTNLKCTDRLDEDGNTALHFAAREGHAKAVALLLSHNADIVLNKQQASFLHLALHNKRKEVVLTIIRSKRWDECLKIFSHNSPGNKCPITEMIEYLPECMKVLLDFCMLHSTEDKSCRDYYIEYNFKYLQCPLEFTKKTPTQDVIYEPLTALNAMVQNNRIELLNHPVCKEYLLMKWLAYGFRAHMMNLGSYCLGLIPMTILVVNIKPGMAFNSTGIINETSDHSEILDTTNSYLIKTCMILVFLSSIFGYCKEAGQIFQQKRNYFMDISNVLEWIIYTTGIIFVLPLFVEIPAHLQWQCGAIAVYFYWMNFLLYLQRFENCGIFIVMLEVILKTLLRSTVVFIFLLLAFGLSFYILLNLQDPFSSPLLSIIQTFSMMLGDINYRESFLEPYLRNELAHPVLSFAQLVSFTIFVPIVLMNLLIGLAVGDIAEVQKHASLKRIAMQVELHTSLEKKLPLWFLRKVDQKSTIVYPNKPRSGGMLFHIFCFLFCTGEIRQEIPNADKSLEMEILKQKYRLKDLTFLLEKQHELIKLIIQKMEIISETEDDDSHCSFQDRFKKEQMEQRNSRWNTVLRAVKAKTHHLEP

O=c1oc2ccccc2cc1-c1cccc(O)c1
Activity [1]: Active | Activity (T47D [2]): Active

CC(=O)Oc1ccc2cc(-c3ccccc3)c(=O)oc2c1
Activity [3]: Active | Activity (T47D [2]): inactive

CC(=O)Oc1ccc2cc(-c3cccc(Br)c3)c(=O)oc2c1
Activity [3]: Active | Activity (T47D [2]): inactive | inhibition at 1 µM (T47D [4]): 20% | inhibition at 10 µM (T47D [5]): 60% | inhibition (T47D [6]): Active | inhibition at 10 µM (T47D [7]): 8% | inhibition at 100 µM (T47D [8]): 18%

Oc1ccc(/C=C/c2cc(O)cc(O)c2)cc1
Activity (T47D [2]): Active

O=c1oc2ccccc2cc1-c1ccc(O)cc1
Activity [3]: Active

O=c1oc2cc(O)ccc2cc1-c1cccc(O)c1
Activity [3]: Active | Activity [1]: Active | Activity (T47D [2]): Active
